The results in this text go back to ChEMBL document CHEMBL1144085, “DNA polymerase beta inhibitors from Sandoricum koetjape” (J Nat Prod, 1999).

Assay [1] addresses DNA polymerase beta (Rattus norvegicus) (UniProt P06766). Put plainly: (§1) Inhibition of rat DNA polymerase beta.
In assay [2] the target is DNA polymerase beta (Rattus norvegicus, UniProt P06766). The assay is described as §1.
Assay [3] deals with DNA polymerase beta (Rattus norvegicus) (UniProt P06766). Put plainly: Activity of rat DNA polymerase beta using variable levels of [3H]TTP substrate by Lineweaver-Burke plot.
For assay [4] the target is unchanged. Put plainly: Activity of rat DNA polymerase beta using variable levels of DNA template primer by Lineweaver-Burke plot.

Molecules are shown by their SMILES. pIC50: −log10 of the molar value. Calls of active or inactive are those of the source. No cut-off for these calls is given here.

For the molecule `CCCCNC(=O)[C@]1(C)CC[C@]2(C)CC[C@]3(C)C(=CC[C@@H]4[C@@]5(C)CCC(=O)C(C)(C)[C@@H]5CC[C@]43C)[C@@H]2C1`, the result in assay [1] was inactive.
Same read-out and setting: next, `COC(=O)[C@]1(C)CC[C@]2(C)CC[C@]3(C)C(=CC[C@@H]4[C@@]5(C)CCC(=O)C(C)(C)[C@@H]5CC[C@]43C)[C@@H]2C1`: “inactive”.
With `CC1(C)/C(=N\OCc2ccccc2)CC[C@]2(C)[C@H]3CC=C4[C@@H]5C[C@](C)(C(=O)O)CC[C@]5(C)CC[C@@]4(C)[C@]3(C)CC[C@@H]12`, the pIC50 in assay [2] was 4.46. The Kii in assay [3] turned out to be 22 µM; in assay [4] it was 24 µM. Moreover, the Kis in assay [3] is 69 µM; in assay [4], 37 µM.
With `CCOC(=O)[C@]1(C)CC[C@]2(C)CC[C@]3(C)C(=CC[C@@H]4[C@@]5(C)CCC(=O)C(C)(C)[C@@H]5CC[C@]43C)[C@@H]2C1`, in assay [1], the result was inactive.
`C=C(C)[C@@H]1CC[C@]2(C)[C@H](CC=C3[C@@H]4C[C@@](C)(C(=O)O)CC[C@]4(C)CC[C@]32C)[C@@]1(C)CCC(=O)O` [KOETJAPIC ACID] showed a negative-log IC50 (pIC50) in assay [2] of 4.70. Besides, in assay [3], the Kii stood at 11 µM and the Kis turned out to be 24 µM. In assay [4], this molecule returned a Kii of 18 µM and a Kis of 5.6 µM.
Take `CC1(C)[C@H](O)CC[C@]2(C)[C@H]3CC=C4[C@@H]5C[C@](C)(C(=O)O)CC[C@]5(C)CC[C@@]4(C)[C@]3(C)CC[C@@H]12` [KATONIC ACID]: in assay [2], the negative logarithm of the IC50 (pIC50) is 4.44. In assay [3], the Kii turned out to be 24 µM and the Kis is 60 µM. Further, in assay [4], the Kii was found to be 11 µM and the Kis came to 4.2 µM.
As for `CCN(CC)C(=O)[C@]1(C)CC[C@]2(C)CC[C@]3(C)C(=CC[C@@H]4[C@@]5(C)CCC(=O)C(C)(C)[C@@H]5CC[C@]43C)[C@@H]2C1`, the result in assay [1] was inactive.
On to `CC1(C)C(=O)CC[C@]2(C)[C@H]3CC=C4[C@@H]5C[C@](C)(C(=O)O)CC[C@]5(C)CC[C@@]4(C)[C@]3(C)CC[C@@H]12`, for which the pIC50 in assay [2] was 4.66. In assay [3], this molecule yielded a Kii of 9.1 µM and a Kis of 60 µM. In assay [4], this molecule gave a Kii of 50 µM and a Kis of 5.5 µM.
Regarding `CC1(C)/C(=N\O)CC[C@]2(C)[C@H]3CC=C4[C@@H]5C[C@](C)(C(=O)O)CC[C@]5(C)CC[C@@]4(C)[C@]3(C)CC[C@@H]12`, the pIC50 in assay [2] was 4.80. For the same molecule, in assay [3], the Kii came out at 10 µM and the Kis was 16 µM.
The molecule `CO/N=C1/CC[C@]2(C)[C@H]3CC=C4[C@@H]5C[C@](C)(C(=O)O)CC[C@]5(C)CC[C@@]4(C)[C@]3(C)CC[C@H]2C1(C)C` gave a pIC50 in assay [2] of 4.44. Also, in assay [3], the Kii was 35 µM and the Kis is 73 µM. In assay [4], this molecule came in with a Kii of 35 µM and a Kis of 9.1 µM.
`CC(C)(C)NC(=O)[C@]1(C)CC[C@]2(C)CC[C@]3(C)C(=CC[C@@H]4[C@@]5(C)CCC(=O)C(C)(C)[C@@H]5CC[C@]43C)[C@@H]2C1`: in assay [1], the result was inactive.
The same measure, in the same setting: in the case of `CC1(C)C(=O)CC[C@]2(C)[C@H]3CC=C4[C@@H]5C[C@](C)(C(N)=O)CC[C@]5(C)CC[C@@]4(C)[C@]3(C)CC[C@@H]12` it was “inactive”; in that of `COC(=O)[C@]1(C)CC[C@]2(C)CC[C@]3(C)C(=CC[C@@H]4[C@@]5(C)CC[C@@H](O)C(C)(C)[C@@H]5CC[C@]43C)[C@@H]2C1`, “inactive”.
